Reference: patent US20240124466A1, “COMPOUNDS AND USE THEREOF FOR TREATMENT OF NEURODEGENERATIVE, DEGENERATIVE AND METABOLIC DISORDERS” (VOVA IDA THERAPEUTICS, INC., priority 2020, published 2024)
Several values for one entry are separate records, joined by “and”; a condition that tells them apart may be missing. Equal entries are not always repeated. Where two headings read alike, the source gives them in different places.

Assays:
[1] = tested on: PK1 neuroblastoma cells exposed to TPrP; details: for EC50: read-out: TPrP EC50; for toxic at cc (concentration above which compound is toxic): mouse
[2] = tested on: PK1 neuroblastoma cells exposed to TPrP; assay: cells; details: Neuroblastoma cell, 96 h, read-out: TPrP EC50

Compound	EC50 [2]	also measured
Cc1ccc(-c2nnc3c4ccccc4c(C)nn23)cc1S(=O)(=O)N1CCOCC1 [SR-843]	0.015 µM	EC50 [1]: 0.02 µM and 0.025 µM and 0.03 µM
Cc1ccc(-c2nnc(-c3ccccc3)[nH]2)cc1S(=O)(=O)N1CCOCC1 [SR-25604, 4-((2-Methyl-5-(5-phenyl-4H-1,2,4-triazol-3-yl)phenyl)sulfonyl)morpholine]	0.035 µM	EC50 [1]: 0.03 µM and 0.04 µM
Cc1ccc(-c2nnc(-c3ccc(N(C)C)cc3)[nH]2)cc1S(=O)(=O)N1CCOCC1 [SR-28124, N,N-dimethyl-4-(5-(4-methyl-3-(morpholinosulfonyl)phenyl)-4H-1,2,4-triazol-3-yl)aniline]	0.012 µM	toxic at cc (concentration above which compound is toxic) [1]: 12 nM (but toxic at cc >135 nM)
Cc1ccc(-c2nnc(-c3ccc([N+](=O)[O-])cc3)[nH]2)cc1S(=O)(=O)N1CCOCC1 [SR-29045, 4-((2-Methyl-5-(5-(4-nitrophenyl)-4H-1,2,4-triazol-3-yl)phenyl)sulfonyl) morpholine]	0.005 µM	toxic at cc (concentration above which compound is toxic) [1]: 5 nM (but toxic at cc >5 nM)
Cc1ccc(-c2ccnc(-c3ccncc3)c2)cc1S(=O)(=O)N1CCOCC1 [SR-29204, 4-((5-([2,4′-Bipyridin]-4-yl)-2-methylphenyl)sulfonyl)morpholine]	< 0.005 µM	protection at 5 nM [1]: <5 nM (100% protection at 5 nM)
Cc1ccc(-c2nnc(-c3ccccc3)[nH]2)cc1S(=O)(=O)N1CCN(CCNC(=O)OC(C)(C)C)CC1 [SR-34024, tert-Butyl (2-(4-((2-methyl-5-(5-phenyl-4H-1,2,4-triazol-3-yl)phenyl)sulfonyl)piperazin-1-yl)ethyl)carbamate]	~1.5 µM	–
Cc1ccc(-c2ccnc(N3CCOCC3)c2)cc1S(=O)(=O)N1CC(O)C1 [SR-34464, 1-((2-Methyl-5-(2-morpholinopyridin-4-yl)phenyl)sulfonyl)azetidin-3-ol]	0.3 µM	–
COCCN1CCN(S(=O)(=O)c2cc(-c3nnc(-c4ccccc4)[nH]3)ccc2C)CC1 [SR-34533, 1-(2-Methoxyethyl)-4-((2-methyl-5-(5-phenyl-4H-1,2,4-triazol-3-yl)phenyl)sulfonyl)piperazine]	> 1.5 µM	–
Cc1cc(C)c(S(=O)(=O)N2CCN(CCO)CC2)cc1-c1nnc(-c2ccccc2)[nH]1 [SR-34778, 2-(4-((2,4-Dimethyl-5-(5-phenyl-4H-1,2,4-triazol-3-yl)phenyl)sulfonyl)piperazin-1-yl)ethan-1-ol]	0.013 µM	–
Cc1ccc(-c2ccnc(Cl)c2)cc1S(=O)(=O)N1CCN(CCO)CC1 [SR-34793, 2-(4-((5-(2-Chloropyridin-4-yl)-2-methylphenyl)sulfonyl)piperazin-1-yl)ethan-1-ol]	0.04 µM	–
Cc1cc(C)c(S(=O)(=O)N2CCN(CCO)CC2)cc1-c1ccnc(Cl)c1 [SR-34951, 2-(4-((5-(2-Chloropyridin-4-yl)-2,4-dimethylphenyl)sulfonyl)piperazin-1-yl)ethan-1-ol]	0.09 µM	–
Cc1cc(F)c(-c2ccnc(Cl)c2)cc1S(=O)(=O)N1CCN(CCO)CC1 [SR-35015, 2-(4-((5-(2-Chloropyridin-4-yl)-4-fluoro-2-methylphenyl)sulfonyl)piperazin-1-yl)ethan-1-ol]	0.05 µM	–
Cc1ccc(-c2ccnc(Cl)c2)cc1S(=O)(=O)N1CCN(CCF)CC1 [SR-35017, 1-((5-(2-Chloropyridin-4-yl)-2-methylphenyl)sulfonyl)-4-(2-fluoroethyl) piperazine]	0.9 µM	–
Cc1ccc(-c2ccnc(Cl)c2)cc1S(=O)(=O)N1CCN(CC(F)F)CC1 [SR-35124, 1-((5-(2-Chloropyridin-4-yl)-2-methylphenyl)sulfonyl)-4-(2,2-difluoroethyl) piperazine]	> 1.5 µM	–
Cc1ccc(-c2ccnc(Cl)c2)cc1S(=O)(=O)N1CCN(CCCO)CC1 [SR-35129, 3-(4-((5-(2-Chloropyridin-4-yl)-2-methylphenyl)sulfonyl)piperazin-1-yl)propan-1-ol]	> 1.5 µM	–
C#CCCC(=O)CCn1cc(-c2ccc(C)c(S(=O)(=O)N3CCN(CCc4ccncc4)CC3)c2)cn1 [SR-35186, 1-(4-(4-Methyl-3-((4-(2-(pyridin-4-yl)ethyl)piperazin-1-yl)sulfonyl)phenyl)-1H-pyrazol-1-yl)hept-6-yn-3-one]	< 0.005 µM	–
Cc1ccc(-c2ccnc(Cl)c2)cc1S(=O)(=O)N1CCN(CC(F)(F)F)CC1 [SR-35324, 1-((5-(2-Chloropyridin-4-yl)-2-methylphenyl)sulfonyl)-4-(2,2,2-trifluoroethyl) piperazine]	> 1.5 µM	–
Cc1ccc(-c2ccnc(Cl)c2)cc1S(=O)(=O)N1CCNCC1 [SR-35422, 1-((5-(2-Chloropyridin-4-yl)-2-methylphenyl)sulfonyl)piperazine]	< 0.005 µM	–
Cc1ccc(-c2ccnc(Cl)c2)cc1S(=O)(=O)N1CCN(CC(C)O)CC1 (stereo not shown) [SR-35464, 1-(4-((5-(2-Chloropyridin-4-yl)-2-methylphenyl)sulfonyl)piperazin-1-yl)propan-2-ol]	0.8 µM	–
Cc1ccc(-c2ccnc(Cl)c2)cc1S(=O)(=O)N1CCN(C(=O)c2ccco2)CC1 [SR-35516, (4-((5-(2-Chloropyridin-4-yl)-2-methylphenyl)sulfonyl)piperazin-1-yl)(furan-2-yl)methanone]	0.27 µM	–
